Data on seven compounds can be found in ChEMBL document CHEMBL4813963, “Discovery of pyrazolo-thieno[3,2-d]pyrimidinylamino-phenyl acetamides as type-II pan-tropomyosin receptor kinase (TRK) inhibitors: Design, synthesis, and biological evaluation” (Eur J Med Chem, 2021).

In data set [1] the target is T1, High affinity nerve growth factor receptor (Homo sapiens, UniProt P04629). In words: Inhibition of recombinant His-tagged human TRKA (441 to 796 residues) expressed in baculovirus expression system using 5-FAM-EEPLYWSFPAKKK-CONH2 as substrate preincubated for 1 hr followed by substrate addition in presence of ATP by mobility shift assay.
Target sequence in this assay (P04629 whole entry, the tested form may be a part): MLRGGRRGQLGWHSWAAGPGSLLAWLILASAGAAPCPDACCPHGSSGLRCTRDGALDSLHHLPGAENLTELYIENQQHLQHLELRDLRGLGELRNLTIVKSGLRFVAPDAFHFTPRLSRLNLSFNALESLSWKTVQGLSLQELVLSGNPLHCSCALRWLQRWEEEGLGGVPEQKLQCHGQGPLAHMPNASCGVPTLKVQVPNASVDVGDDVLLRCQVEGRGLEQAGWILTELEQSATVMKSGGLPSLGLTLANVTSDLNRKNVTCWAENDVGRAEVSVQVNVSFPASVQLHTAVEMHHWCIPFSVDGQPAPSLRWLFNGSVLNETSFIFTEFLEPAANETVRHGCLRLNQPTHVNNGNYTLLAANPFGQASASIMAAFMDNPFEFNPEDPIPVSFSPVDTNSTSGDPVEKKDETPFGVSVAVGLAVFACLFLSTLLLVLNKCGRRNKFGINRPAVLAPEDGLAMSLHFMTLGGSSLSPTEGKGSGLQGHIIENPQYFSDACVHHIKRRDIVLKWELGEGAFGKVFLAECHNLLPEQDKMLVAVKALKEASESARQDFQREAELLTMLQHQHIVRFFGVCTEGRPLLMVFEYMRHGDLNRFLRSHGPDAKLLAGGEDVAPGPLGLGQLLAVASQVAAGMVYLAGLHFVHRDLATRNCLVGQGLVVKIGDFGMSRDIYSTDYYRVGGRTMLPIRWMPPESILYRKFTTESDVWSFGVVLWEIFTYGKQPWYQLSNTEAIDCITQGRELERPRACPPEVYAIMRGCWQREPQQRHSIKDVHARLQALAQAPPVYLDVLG
For another data set, the system named is KM12. In words: Cytotoxicity against human KM12 cells assessed as reduction in cell viability incubated for 72 hrs by resazurin based assay. The conditions noted are these: KM12, 72 h. The format is functional.
Data set [2] concerns the target T1, High affinity nerve growth factor receptor. In words: Inhibition of recombinant His-tagged human TRKA (441 to 796 residues) expressed in baculovirus expression system at 20 uM using 5-FAM-EEPLYWSFPAKKK-CONH2 as substrate preincubated for 1 hr followed by substrate addition in presence of ATP by mobility shift assay relative to control.
Target sequence in this assay (P04629 33-796 limits assumed): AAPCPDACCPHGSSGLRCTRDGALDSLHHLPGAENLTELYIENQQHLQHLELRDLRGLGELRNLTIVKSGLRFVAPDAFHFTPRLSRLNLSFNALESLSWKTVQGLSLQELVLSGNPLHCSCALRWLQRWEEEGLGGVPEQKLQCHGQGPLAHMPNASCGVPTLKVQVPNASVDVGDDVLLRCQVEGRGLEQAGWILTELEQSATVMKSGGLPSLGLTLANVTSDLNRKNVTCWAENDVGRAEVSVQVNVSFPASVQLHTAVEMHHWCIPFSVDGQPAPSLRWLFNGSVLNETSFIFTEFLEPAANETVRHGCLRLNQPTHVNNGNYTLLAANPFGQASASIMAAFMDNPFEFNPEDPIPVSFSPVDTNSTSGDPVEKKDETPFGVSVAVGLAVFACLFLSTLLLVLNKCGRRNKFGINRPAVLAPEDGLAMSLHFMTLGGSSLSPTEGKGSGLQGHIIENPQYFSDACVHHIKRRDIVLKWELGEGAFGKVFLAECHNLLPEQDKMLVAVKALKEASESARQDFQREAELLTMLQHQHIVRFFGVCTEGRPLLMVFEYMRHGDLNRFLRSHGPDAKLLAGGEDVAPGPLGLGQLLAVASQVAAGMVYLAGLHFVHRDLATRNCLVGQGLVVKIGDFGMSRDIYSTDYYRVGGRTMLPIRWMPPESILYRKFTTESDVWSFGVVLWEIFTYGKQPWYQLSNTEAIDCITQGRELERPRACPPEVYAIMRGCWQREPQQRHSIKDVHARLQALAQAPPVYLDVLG
Data set [3] in a line: Permeability of compound in human brain like endothelial cells BBB model at 10 uM after 120 mins by LC-MS analysis. The format is ADME, cell-based. Particulars: read-out: permeability (converted).
The target of data set [4] is Mitogen-activated protein kinase kinase kinase kinase 4 (Homo sapiens, UniProt O95819). Description: Inhibition of MAP4K4 (unknown origin).
Data set [5] has as its target Serine/threonine-protein kinase Nek2 (Homo sapiens, UniProt P51955). Description: Inhibition of NEK2 (unknown origin).
In the next data set the target is Aurora kinase A (Homo sapiens, UniProt O14965). Description: Inhibition of Aurora A (unknown origin).
Data set [6] addresses Macrophage colony-stimulating factor 1 receptor (Homo sapiens, UniProt P07333). Description: Inhibition of CSF1R (unknown origin).
Data set [7] addresses Epidermal growth factor receptor (Homo sapiens, UniProt P00533). Description: Inhibition of EGFR (unknown origin).
In the next data set the target is Aurora kinase B (Homo sapiens, UniProt Q96GD4). In words: Inhibition of Aurora B (unknown origin).

Some results are limits rather than exact numbers.

Sequence of Epidermal growth factor receptor (P00533 whole entry): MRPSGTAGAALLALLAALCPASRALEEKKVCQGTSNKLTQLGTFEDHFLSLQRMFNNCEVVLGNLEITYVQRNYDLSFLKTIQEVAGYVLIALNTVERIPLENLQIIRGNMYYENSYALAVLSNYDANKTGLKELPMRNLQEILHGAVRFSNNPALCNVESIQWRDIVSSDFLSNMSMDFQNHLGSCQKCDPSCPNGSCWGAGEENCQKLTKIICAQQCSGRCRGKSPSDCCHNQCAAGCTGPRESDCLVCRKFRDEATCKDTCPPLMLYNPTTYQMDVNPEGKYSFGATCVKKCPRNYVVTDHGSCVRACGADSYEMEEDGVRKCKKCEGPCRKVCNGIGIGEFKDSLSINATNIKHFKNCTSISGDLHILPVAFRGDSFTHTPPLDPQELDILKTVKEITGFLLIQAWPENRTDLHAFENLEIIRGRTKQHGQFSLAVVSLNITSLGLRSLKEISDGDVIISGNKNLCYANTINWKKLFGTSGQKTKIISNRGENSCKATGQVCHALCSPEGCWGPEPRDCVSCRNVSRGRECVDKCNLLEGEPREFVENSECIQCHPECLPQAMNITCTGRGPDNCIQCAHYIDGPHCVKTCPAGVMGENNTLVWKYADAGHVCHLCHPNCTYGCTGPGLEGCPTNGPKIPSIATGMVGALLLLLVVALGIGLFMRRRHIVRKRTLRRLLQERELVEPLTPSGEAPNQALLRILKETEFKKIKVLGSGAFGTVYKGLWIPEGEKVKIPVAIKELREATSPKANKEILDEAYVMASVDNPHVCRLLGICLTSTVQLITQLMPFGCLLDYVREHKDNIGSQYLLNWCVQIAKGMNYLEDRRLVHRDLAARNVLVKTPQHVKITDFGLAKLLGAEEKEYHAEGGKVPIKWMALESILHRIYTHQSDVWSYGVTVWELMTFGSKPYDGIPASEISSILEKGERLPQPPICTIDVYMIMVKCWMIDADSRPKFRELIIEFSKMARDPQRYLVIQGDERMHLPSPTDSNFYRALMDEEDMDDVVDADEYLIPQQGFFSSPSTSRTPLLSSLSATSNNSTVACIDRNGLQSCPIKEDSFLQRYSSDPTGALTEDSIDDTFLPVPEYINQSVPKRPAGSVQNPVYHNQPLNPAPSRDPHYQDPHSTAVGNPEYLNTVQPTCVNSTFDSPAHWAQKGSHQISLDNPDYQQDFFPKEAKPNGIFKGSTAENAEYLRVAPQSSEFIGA
Sequence of Macrophage colony-stimulating factor 1 receptor (P07333 whole entry): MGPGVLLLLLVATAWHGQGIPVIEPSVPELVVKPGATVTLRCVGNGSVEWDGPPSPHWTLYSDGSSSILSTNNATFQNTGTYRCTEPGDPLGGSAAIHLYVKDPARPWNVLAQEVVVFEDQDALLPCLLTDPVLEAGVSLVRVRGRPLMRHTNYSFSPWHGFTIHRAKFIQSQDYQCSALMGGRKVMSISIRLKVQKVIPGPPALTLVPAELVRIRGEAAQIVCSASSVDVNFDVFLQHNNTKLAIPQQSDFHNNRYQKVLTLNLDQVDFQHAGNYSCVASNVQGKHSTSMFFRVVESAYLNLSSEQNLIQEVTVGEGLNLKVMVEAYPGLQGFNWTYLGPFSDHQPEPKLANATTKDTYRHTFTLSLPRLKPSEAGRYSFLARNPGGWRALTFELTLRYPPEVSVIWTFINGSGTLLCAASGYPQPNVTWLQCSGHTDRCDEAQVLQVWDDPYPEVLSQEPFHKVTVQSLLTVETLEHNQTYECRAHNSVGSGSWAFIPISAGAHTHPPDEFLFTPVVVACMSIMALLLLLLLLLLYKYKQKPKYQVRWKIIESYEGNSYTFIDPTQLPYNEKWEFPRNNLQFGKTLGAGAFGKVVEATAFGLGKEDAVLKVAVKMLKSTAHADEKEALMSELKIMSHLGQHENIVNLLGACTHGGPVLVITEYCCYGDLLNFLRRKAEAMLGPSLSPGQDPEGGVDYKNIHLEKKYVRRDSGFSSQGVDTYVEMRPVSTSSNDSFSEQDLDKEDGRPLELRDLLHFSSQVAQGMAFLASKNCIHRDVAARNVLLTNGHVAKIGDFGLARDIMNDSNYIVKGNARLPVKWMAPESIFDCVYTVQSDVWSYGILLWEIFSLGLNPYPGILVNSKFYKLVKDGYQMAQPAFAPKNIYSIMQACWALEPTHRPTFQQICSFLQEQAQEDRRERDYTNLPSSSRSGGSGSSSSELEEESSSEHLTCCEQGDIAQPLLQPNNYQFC
Sequence of Aurora kinase A (O14965 whole entry): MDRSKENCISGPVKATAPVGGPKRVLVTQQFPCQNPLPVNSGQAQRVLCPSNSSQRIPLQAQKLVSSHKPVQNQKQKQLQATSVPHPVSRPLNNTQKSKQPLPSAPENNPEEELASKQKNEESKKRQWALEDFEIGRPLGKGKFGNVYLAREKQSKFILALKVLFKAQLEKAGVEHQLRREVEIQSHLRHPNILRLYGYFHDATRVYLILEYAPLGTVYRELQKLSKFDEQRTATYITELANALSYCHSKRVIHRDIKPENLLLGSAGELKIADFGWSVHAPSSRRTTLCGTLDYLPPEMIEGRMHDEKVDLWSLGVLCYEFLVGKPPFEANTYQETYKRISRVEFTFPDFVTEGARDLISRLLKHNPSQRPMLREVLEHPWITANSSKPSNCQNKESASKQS
Sequence of Serine/threonine-protein kinase Nek2 (P51955 whole entry): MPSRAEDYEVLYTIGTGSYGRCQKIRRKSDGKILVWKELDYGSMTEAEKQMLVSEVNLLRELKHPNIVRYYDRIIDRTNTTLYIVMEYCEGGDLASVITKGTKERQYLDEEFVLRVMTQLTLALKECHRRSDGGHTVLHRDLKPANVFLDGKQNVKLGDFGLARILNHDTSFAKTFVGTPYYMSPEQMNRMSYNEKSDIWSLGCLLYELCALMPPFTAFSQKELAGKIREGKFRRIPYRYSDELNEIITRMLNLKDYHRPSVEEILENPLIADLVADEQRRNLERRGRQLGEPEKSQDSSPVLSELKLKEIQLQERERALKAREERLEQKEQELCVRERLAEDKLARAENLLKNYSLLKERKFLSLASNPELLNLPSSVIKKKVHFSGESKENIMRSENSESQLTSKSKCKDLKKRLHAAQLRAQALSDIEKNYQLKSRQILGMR
Sequence of Aurora kinase B (Q96GD4 whole entry): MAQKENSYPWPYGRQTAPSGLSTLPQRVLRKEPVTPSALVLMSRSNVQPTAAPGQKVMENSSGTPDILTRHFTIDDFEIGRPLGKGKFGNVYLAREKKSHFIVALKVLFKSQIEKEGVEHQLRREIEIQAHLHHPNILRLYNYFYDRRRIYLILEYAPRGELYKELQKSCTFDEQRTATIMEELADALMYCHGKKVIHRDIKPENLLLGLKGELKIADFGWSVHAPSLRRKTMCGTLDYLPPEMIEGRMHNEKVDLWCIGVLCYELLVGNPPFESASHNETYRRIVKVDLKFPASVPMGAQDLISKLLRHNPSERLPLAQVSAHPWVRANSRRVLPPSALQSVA

As for `C#Cc1cccc(NC(=O)Cc2ccc(Nc3ncnc4ccsc34)cc2)c1`, the IC50 in data set [1] worked out at 22.6 µM; in the data set with KM12 it was 38.8 µM.
Regarding `Fc1ccc(Nc2ncnc3ccsc23)cc1`, the inhibition in data set [2] amounted to 17.4%. In the data set on KM12, the IC50 worked out at 133 µM.
`CS(=O)(=O)c1ccc(-c2cc3ncnc(Nc4ccc(CC(=O)Nc5ccc(F)c(Cl)c5)cc4)c3s2)cc1`: in [1], the IC50 is 200 µM.
For `Cn1nc(C(C)(C)C)cc1NC(=O)Cc1ccc(-c2ncnc3ccsc23)cc1`, the inhibition in data set [2] is 31.4%. In addition, the half-inhibitory concentration (IC50) in the data set with KM12 was 25.2 µM.
Taken in the same sequence, the figures for `COc1ccc(Nc2ncnc3ccsc23)cc1` were 18% and 103 µM.
For `CN1CCN(c2ccc(C(=O)Nc3n[nH]c4ccc(Cc5cc(F)cc(F)c5)cc34)c(NC3CCOCC3)c2)CC1` [ENTRECTINIB], the IC50 in the data set on KM12 came out at 0.012 µM. Further, the Papp at 2 h, 10 µM in data set [3] was 17 ×10⁻⁶ cm/s.
In the case of `Cn1cc(-c2cc3ncnc(Nc4ccc(CC(=O)Nc5cc(C(C)(C)C)nn5C)cc4)c3s2)cn1`, the IC50 in data set [4] is 41.5 µM; in data set [5], more than 200 µM; at Aurora kinase A, 0.893 µM; in [6] it was 13.6 µM; in data set [7], 176 µM; against Aurora kinase B, 1.99 µM. In addition, the Papp at 2 h, 10 µM in data set [3] is 50.5 ×10⁻⁶ cm/s.

As a reminder, the IC50 is the concentration at which inhibition is half-maximal. Usually inhibition stands for the relative decrease from the control value, in per cent.
